Experimental data as given in ChEMBL document CHEMBL1201862, “PubChem BioAssay data set” (2004).
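Test compounds were applied to cells in 96-well plates for 48 hours at 5 doses. Here, GI50 denotes the concentration required for 50% inhibition of growth.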 The source made the active and inactive calls. No stated cut-off is given here; in the data, active = GI50 up to about 1.1 µM and inactive = higher.

How the values were obtained:
Assay in all cases: NCI-60 cell line screen, 48 h
CAKI-1 = test system: CAKI-1
CCRF-CEM = test system: CCRF-CEM
DU-145 = test system: DU-145
EKVX = test system: EKVX
HCT-15 = test system: HCT-15
Hs-578T = test system: Hs-578T
K562 = test system: K562
KM12 = test system: KM12
NCI-H226 = test system: NCI-H226
OVCAR-5 = test system: OVCAR-5
SK-MEL-2 = test system: SK-MEL-2
SK-MEL-5 = test system: SK-MEL-5
SK-OV-3 = test system: SK-OV-3
SN12C = test system: SN12C
SNB-19 = test system: SNB-19
T47D = test system: T47D
UACC-62 = test system: UACC-62
MDA-MB-231 = test system: MDA-MB-231
NCI-H23 = test system: NCI-H23

Row | Compound | GI50 (CAKI-1) | GI50 (CCRF-CEM) | GI50 (DU-145) | GI50 (EKVX) | GI50 (HCT-15) [µM] | GI50 (Hs-578T) | GI50 (K562) | GI50 (KM12) | GI50 (NCI-H226) | GI50 (OVCAR-5) | GI50 (SK-MEL-2) | GI50 (SK-MEL-5) | GI50 (SK-OV-3) | GI50 (SN12C) | GI50 (SNB-19) | GI50 (T47D) | GI50 (UACC-62) | GI50 (MDA-MB-231) | GI50 (NCI-H23)
1 | O=c1n(CCCN2CCOCC2)nc2n1-c1ccc3ccccc3c1SC2 | 49 µM (inactive) | 45.5 µM (inactive) | 87.9 µM (inactive) | 89.7 µM (inactive) | 27.7 | 37.6 µM (inactive) | 67.1 µM (inactive) | 47.3 µM (inactive) | > 100 µM (inactive) | 66.7 µM (inactive) | 65.8 µM (inactive) | 29.4 µM (inactive) | 63.2 µM (inactive) | 71.9 µM (inactive) | 52.6 µM (inactive) | 61.8 µM (inactive) | 21.4 µM (inactive) | – | –
2 | CNC(=O)C(C)C1C(=O)/C(=C(O)/C=C\C(C)=C\C(C)C2OC3(C)OC(C=CC34CO4)C2C)C(=O)N1C1CCC(O)C(C)O1 (stereo unspecified) | > 100 µM (inactive) | > 100 µM (inactive) | > 100 µM (inactive) | > 100 µM (inactive) | > 100 | – | > 100 µM (inactive) | > 100 µM (inactive) | – | > 100 µM (inactive) | > 100 µM (inactive) | > 100 µM (inactive) | > 100 µM (inactive) | > 100 µM (inactive) | > 100 µM (inactive) | > 100 µM (inactive) | > 100 µM (inactive) | > 100 µM (inactive) | –
3 | COc1cc2c3c(c4cc(OC)c(OC)cc4c2cc1OC)[C@H](O)[C@@H]1CCCN1C3 | < 0.0324 µM (active) | < 0.0272 µM (active) | < 0.0243 µM (active) | < 0.0217 µM (active) | < 0.0239 | – | < 0.021 µM (active) | < 0.0232 µM (active) | 0.0494 µM (active) | < 0.0316 µM (active) | < 0.0167 µM (active) | < 0.0259 µM (active) | < 0.0237 µM (active) | < 0.0303 µM (active) | 0.0276 µM (active) | 0.0269 µM (active) | < 0.0337 µM (active) | < 0.0342 µM (active) | < 0.0344 µM (active)
4 | C[C@]12CCCC(=O)C1(O)C[C@H](C(=O)O)CC2 (stereo partly specified) | > 100 µM (inactive) | > 100 µM (inactive) | – | – | > 100 | – | > 100 µM (inactive) | > 100 µM (inactive) | > 100 µM (inactive) | > 100 µM (inactive) | > 100 µM (inactive) | > 100 µM (inactive) | > 100 µM (inactive) | > 100 µM (inactive) | > 100 µM (inactive) | – | > 100 µM (inactive) | – | > 100 µM (inactive)
5 | CCC[C@@H]1C(=O)N=C(N)N1C(=O)OCc1ccccc1 | > 100 µM (inactive) | – | > 100 µM (inactive) | > 100 µM (inactive) | > 100 | > 100 µM (inactive) | > 100 µM (inactive) | > 100 µM (inactive) | > 100 µM (inactive) | > 100 µM (inactive) | > 100 µM (inactive) | > 100 µM (inactive) | – | > 100 µM (inactive) | > 100 µM (inactive) | – | > 100 µM (inactive) | > 100 µM (inactive) | > 100 µM (inactive)
6 | CCOC(=O)C1=COC(C)(CCc2ccccc2)CC1=O (stereo unspecified) | > 100 µM (inactive) | – | > 100 µM (inactive) | > 100 µM (inactive) | > 100 | 45 µM (inactive) | 40.3 µM (inactive) | 56.2 µM (inactive) | – | > 100 µM (inactive) | > 100 µM (inactive) | 94 µM (inactive) | > 100 µM (inactive) | > 100 µM (inactive) | 56.2 µM (inactive) | 47.2 µM (inactive) | 55.7 µM (inactive) | 82.6 µM (inactive) | 95.5 µM (inactive)
7 | O=[N+]([O-])C(/C=C(\Cl)[N+](=O)[O-])=C(Nc1ccccc1)Nc1ccccc1 | 13.7 µM (inactive) | 1.44 µM (inactive) | 17.1 µM (inactive) | 13.5 µM (inactive) | 8.26 | 8.59 µM (inactive) | 2.94 µM (inactive) | 11.9 µM (inactive) | – | 5.36 µM (inactive) | 16.4 µM (inactive) | 13.3 µM (inactive) | 20.1 µM (inactive) | 15.5 µM (inactive) | 17.5 µM (inactive) | 7.43 µM (inactive) | 7.45 µM (inactive) | 10.7 µM (inactive) | 7.96 µM (inactive)
8 | O=C1O/C(=C(\Br)c2ccc([N+](=O)[O-])cc2)c2ccccc21 | > 100 µM (inactive) | 21.4 µM (inactive) | > 100 µM (inactive) | > 100 µM (inactive) | > 50.9 | 74.8 µM (inactive) | 30.1 µM (inactive) | > 100 µM (inactive) | > 100 µM (inactive) | > 100 µM (inactive) | 46.2 µM (inactive) | > 75.7 µM (inactive) | > 100 µM (inactive) | > 100 µM (inactive) | > 100 µM (inactive) | 86.5 µM (inactive) | 58.5 µM (inactive) | – | > 100 µM (inactive)
9 | Clc1ccc(OCc2nnc(CCCCCCCCc3nnc(COc4ccc(Cl)cc4Cl)o3)o2)c(Cl)c1 | 24.6 µM (inactive) | – | 85.9 µM (inactive) | > 100 µM (inactive) | 97.5 | – | 18.2 µM (inactive) | 95.1 µM (inactive) | > 100 µM (inactive) | > 100 µM (inactive) | > 100 µM (inactive) | > 100 µM (inactive) | > 100 µM (inactive) | > 100 µM (inactive) | 69.3 µM (inactive) | – | > 100 µM (inactive) | > 100 µM (inactive) | > 100 µM (inactive)
10 | COc1c(O)cc2c(c1O)C(=O)C(Cc1ccc(O)cc1)CO2 (stereo unspecified) | 78.9 µM (inactive) | – | > 100 µM (inactive) | > 100 µM (inactive) | 44 | > 100 µM (inactive) | 22.8 µM (inactive) | 89.3 µM (inactive) | – | > 100 µM (inactive) | > 100 µM (inactive) | 84.9 µM (inactive) | 68.9 µM (inactive) | > 100 µM (inactive) | > 100 µM (inactive) | > 100 µM (inactive) | 99.8 µM (inactive) | > 100 µM (inactive) | > 100 µM (inactive)
11 | CNC/C(Cl)=N/S(=O)(=O)c1ccc(C)cc1 | 13.2 µM (inactive) | – | 5.07 µM (inactive) | 15.6 µM (inactive) | 16.1 | 28.8 µM (inactive) | 36.1 µM (inactive) | 13.8 µM (inactive) | 19.5 µM (inactive) | 21 µM (inactive) | 15 µM (inactive) | 15 µM (inactive) | 22.8 µM (inactive) | 9.75 µM (inactive) | 20.4 µM (inactive) | – | 9.64 µM (inactive) | 13.7 µM (inactive) | 7.83 µM (inactive)
12 | COc1cccc2c1C(=O)c1c(O)c3c(c(O)c1C2=O)C[C@@](O)(C(=O)CO)CC3OC1CC(N(C)CCOCC(OC(C)=O)OC(C)=O)C(O)C(C)O1 (stereo partly specified) | > 0.01 µM (active) | > 0.01 µM (active) | – | > 0.01 µM (active) | – | – | > 0.01 µM (active) | > 0.01 µM (active) | > 0.01 µM (active) | > 0.01 µM (active) | > 0.01 µM (active) | > 0.01 µM (active) | > 0.01 µM (active) | > 0.01 µM (active) | > 0.01 µM (active) | – | > 0.01 µM (active) | – | > 0.01 µM (active)
13 | O=C(NNC(=O)c1ccncc1)C(=O)Nc1cc(Cl)c(Cl)cc1Cl | > 100 µM (inactive) | > 10 µM (inactive) | – | > 100 µM (inactive) | > 100 | > 100 µM (inactive) | > 100 µM (inactive) | > 100 µM (inactive) | > 100 µM (inactive) | > 100 µM (inactive) | > 100 µM (inactive) | > 100 µM (inactive) | > 100 µM (inactive) | > 100 µM (inactive) | > 100 µM (inactive) | > 100 µM (inactive) | > 100 µM (inactive) | > 100 µM (inactive) | > 100 µM (inactive)
14 | CCOP(=O)(OCC)c1cc(-c2ccccc2)ccc1N | > 100 µM (inactive) | > 100 µM (inactive) | > 100 µM (inactive) | 41.5 µM (inactive) | > 100 | 52 µM (inactive) | > 100 µM (inactive) | > 100 µM (inactive) | – | > 100 µM (inactive) | > 100 µM (inactive) | > 100 µM (inactive) | > 100 µM (inactive) | – | > 100 µM (inactive) | – | > 100 µM (inactive) | > 100 µM (inactive) | > 100 µM (inactive)
15 | COc1c(C)c(C/C=C(\C)CC/C=C(\C)CC/C=C(\C)CC/C=C(\C)CCC=C(C)C)c(OC)c(OC)c1OC | 81.3 µM (inactive) | 23.9 µM (inactive) | > 100 µM (inactive) | 44.4 µM (inactive) | 92 | > 100 µM (inactive) | 24.4 µM (inactive) | 14.7 µM (inactive) | – | > 100 µM (inactive) | > 100 µM (inactive) | 16.7 µM (inactive) | > 100 µM (inactive) | 22.9 µM (inactive) | > 100 µM (inactive) | – | > 100 µM (inactive) | 28.3 µM (inactive) | 17.6 µM (inactive)
16 | CC1=CC2=C(C(N)=O)C(=O)OC2(C)C(c2ccccc2)C1 (stereo unspecified) | – | – | > 100 µM (inactive) | > 100 µM (inactive) | > 100 | > 100 µM (inactive) | > 100 µM (inactive) | > 100 µM (inactive) | > 100 µM (inactive) | > 100 µM (inactive) | > 100 µM (inactive) | – | > 100 µM (inactive) | > 100 µM (inactive) | > 100 µM (inactive) | – | > 100 µM (inactive) | > 100 µM (inactive) | –
17 | COc1ccc(C(CC(=O)C(C)(C)CN2CCCCC2)SCCS(=O)(=O)O)cc1 (stereo unspecified) | 34.9 µM (inactive) | 17.1 µM (inactive) | 66.1 µM (inactive) | 30.4 µM (inactive) | 34.2 | 55.3 µM (inactive) | 22.9 µM (inactive) | 30.4 µM (inactive) | 21.9 µM (inactive) | 21.3 µM (inactive) | > 100 µM (inactive) | 20.9 µM (inactive) | 60.7 µM (inactive) | 54.2 µM (inactive) | 83.9 µM (inactive) | – | 37.3 µM (inactive) | 27.5 µM (inactive) | 25.1 µM (inactive)
